Data reported in BigSolDB 2.1.

CC(=O)O[C@]1(C(C)=O)CC[C@H]2[C@@H]3C[C@H](C)C4=CC(=O)CC[C@]4(C)[C@H]3CC[C@@]21C
solubility (mole fraction)
Conditions	278.15 K	283.15 K	288.15 K	293.15 K	298.15 K	303.15 K	308.15 K	313.15 K	318.15 K	323.15 K
in acetone	0.00469	0.00547	0.00618	0.00716	0.0083	0.00959	0.0112	0.0126	0.0144	0.0164
in acetonitrile	0.00283	0.00339	0.00397	0.00473	0.0056	0.00664	0.00785	0.0092	0.0109	0.013
in ethanol	0.000465	0.000655	0.000831	0.00106	0.00135	0.00168	0.00211	0.00267	0.0034	0.0043
in ethyl acetate	0.00327	0.00385	0.00446	0.00515	0.00584	0.00671	0.00773	0.00887	0.0102	0.0118
in isobutanol	0.000675	0.00085	0.00121	0.00157	0.00202	0.00269	0.00351	0.00463	0.00611	0.00789
in isobutyl acetate	0.00292	0.00334	0.0039	0.00443	0.005	0.00574	0.00654	0.00736	0.00849	0.00979
in isopropanol	0.000451	0.000651	0.000754	0.000945	0.00126	0.00166	0.00217	0.00281	0.00373	0.00477
in isopropyl acetate	0.00234	0.00273	0.00317	0.00367	0.00428	0.00497	0.00567	0.00657	0.00751	0.00866
in methanol	0.000588	0.000719	0.000887	0.0011	0.00135	0.00165	0.00202	0.0025	0.00309	0.00381
in methyl acetate	0.00351	0.00415	0.00479	0.00557	0.00649	0.00748	0.00866	0.00999	0.0115	0.0131
in n-butanol	0.000757	0.000978	0.00131	0.00168	0.0022	0.00277	0.00356	0.0046	0.0059	0.00753
in n-butyl acetate	0.00296	0.0035	0.00406	0.00462	0.00538	0.00622	0.00716	0.00829	0.00958	0.0111
in n-propanol	0.000683	0.00089	0.00114	0.00148	0.00188	0.00245	0.0031	0.00395	0.00508	0.00648
in n-propyl acetate	0.0032	0.00384	0.00446	0.00517	0.0059	0.00682	0.00791	0.00917	0.0105	0.012
